For data set [1], the system named is IgE and IgG2a in serum and BALF. The experiment in a line: Total and ovalbumin-specific IgE and total IgG2a in serum and BALF (ELISA). Type of data set: in vivo, BABL/c mice. The protocol:
(§1) According to the schedule (Figure 2), ten female BABL/c mice in each group were sensitized by an intraperitoneal (i.p.) injection of 20 μg of ovalbumin emulsified in 2.25 mg of an aluminum hydroxide gel, prepared from aluminum sulfate hexadecahydrate, in a total volume of 100 μL on days 0 and 14. Mice were challenged via the airway using 1% ovalbumin in saline for 30 min on days 28, 29, and 30 by ultrasonic nebulization. After the last ovalbumin challenge, AHR was assessed on day 32 (48 h after 1% ovalbumin provocation) in each group. Each group of mice was orally (p.o.) administered the vehicle (control), 30∼100 μmol/kg of hesperidin or 10∼100 μmol/kg of hesperidin-3′-O-methylether 2 h before and 6 and 24 h after ovalbumin provocation. For comparison, sham-treated mice were challenged with saline instead of 1% ovalbumin (nonchallenged). The vehicle, a mixture of DMSO : PEG 400 : saline (1 : 1 : 8, v/v), hesperidin, or hesperidin-3′-O-methylether was administered (p.o.) at a volume of 0.01 mL/g of body weight. AHR was assessed by barometric plethysmography using a whole-body plethysmograph (WBP) and analyzed using software of Life Science Suite P3 Analysis Modules (Gould, LDS Test and Measurement LLC, Valley View, OH, USA) in unrestrained animals. Mice were placed into the main chamber of the WBP, and the baseline enhanced pause (P enh) value was determined. Then mice were first nebulized with phosphate-buffered saline (PBS), and subsequently with increasing doses (6.25∼50 mg/mL) of methacholine for 3 min for each nebulization, followed by readings of breathing parameters for 3 min after each nebulization to determine P enh values. Twenty-four hours after P enh determination, these mice were anesthetized with pentobarbital (50 mg/kg, i.p.), and the lungs were lavaged via a tracheal tube with PBS (1 × 1.0 mL, 37°C). After lavage, blood was collected from the jugular vein and allowed to sit so that it would coagulate. The collected bronchoalveolar lavage fluid (BALF) and coagulated blood were respectively centrifuged at 630 g for 7 min and at 3700 g for 10 min at 4°C. After centrifugation, the BALF and serum supernatants were stored at −20°C until determinations of cytokines, including interleukin (IL)-2, IL-4, IL-5, tumor necrosis factor (TNF)-α, and interferon (IFN)-γ by flow cytometric methods using mouse Th1/Th2 cytokine CBA kits, and of a total immunoglobulin (Ig)E and IgG2a using ELISA kits (Pharmingen, San Diego, CA, USA) according to the respective recommendations of the manufacturers. Ovalbumin-specific IgE was measured as described previously. Wells were coated with 100 μL of ovalbumin (20 μg/mL) instead of the capture antibody. Levels are expressed in arbitrary units, where 1 arbitrary unit equals the optical density of the sample divided by the optical density of unchallenged mouse serum or BALF (standard). The BALF pellet was resuspended in ACK lysing buffer (1.658 g NH4Cl, 0.2 g KHCO3, and […] EDTA in 200 mL of water) to lyse the residual erythrocytes in each sample. The number of inflammatory cells was counted using a hemocytometer (Hausser Scientific, Horsham, PA, USA). Cytospin slides were stained and cell differentials were determined in a blinded fashion by counting at least 100 cells under light microscopy. All undetectable data (<1 pg/mL) of cytokines were taken as 0.5 pg/mL.
Background: In an ELISA, binding on a coated surface is turned into a signal by an enzyme label.

Data set [2] relates to inflammatory cells in BALF. The experiment in a line: Inflammatory cell counts in BALF of sensitized and challenged mice. Type of data set: in vivo, BABL/c mice. The protocol: as §1
For the next data set, the system named is IL-4. Details: method as in PMID 21287361. The settings on record: 10 mg/kg (16.38 μmol/kg, p.o.); similar animal model; cited from earlier work.
The subject of the next data set is PDE1. The experiment in a line: PDE1 activity in homogenate of guinea pig lungs or hearts ([3H]-cAMP/[3H]-cGMP two-step procedure). Type of data set: biochemical. The settings on record: guinea pig lung or heart homogenate; read-out: IC50 for PDE1 inhibition. The protocol:
Activities of PDE1∼5 in the homogenate of guinea pig lungs or hearts were measured by a two-step procedure according to the previous method, using cAMP with [^3 H]-cAMP or cGMP with [^3 H]-cGMP as substrates. The enzyme preparation (25 μL) was incubated for 30 min at 37°C in a total assay volume of 100 μL containing 50 mM Tris-HCl (pH 7.4), 3 mM MgCl2, 1 mM dithiothreitol, 0.05% BSA, and 1 μM cAMP with 0.2 μCi [^3 H]-cAMP as a substrate alone or in the presence of 0.1 unit calmodulin with 10 μM CaCl2 or 5 μM cGMP, and 1 μM cGMP with 0.2 μCi [^3 H]-cGMP as another substrate alone or in the presence of 0.1 unit calmodulin with 10 μM CaCl2. […] The reagents and homogenate were mixed on ice, and the reaction was initiated by transferring the mixture to a water bath at 37°C. Following a 30 min incubation, the reaction was stopped by transferring the reaction vessel to a bath of boiling water for 3 min. After cooling on ice, 20 μL of a 1 mg/mL solution of Crotalus atrox snake venom was added to the reaction mixture, and the mixture was incubated at 37°C for 10 min. Unreacted [^3 H]-cAMP or [^3 H]-cGMP was removed by the addition of 500 μL of a 1-in-1 Tris-HCl (40 mM) buffer suspension of Dowex resin (1 × 2-400) with incubation on ice for 30 min. Each tube was then centrifuged at 3700 g for 2 min, and 100 μL of the supernatant was removed for liquid scintillation counting.

Data set [3] relates to airway hyperresponsiveness in ovalbumin-sensitized and challenged mice. The experiment in a line: Ovalbumin-induced airway hyperresponsiveness, Penh by whole-body plethysmography. The format is in vivo, BABL/c mice. As to conditions: for Penh value at the baseline / Penh value with PBS nebulization: sensitized and challenged mice. The protocol:
as §1

The test system of data set [4] is duration of xylazine/ketamine-induced anesthesia. The experiment in a line: Xylazine/ketamine-induced anesthesia (surrogate of emesis). The format is in vivo, BALB/c mice. As to conditions: 300 μmol/kg s.c., 1 h before anesthesia; mice. The protocol: According to a previously described method and modified by us, hesperidin, hesperidin-3′-O-methylether (each 300 μmol/kg, subcutaneously (s.c.)), or Ro 20-1724 (0.01∼1 μmol/kg, s.c.), a reference drug, was, respectively, injected into 8∼12-week-old female BALB/c mice 1, 1 or 0.25 h prior to an i.p. injection of xylazine (10 mg/kg)/ketamine (70 mg/kg). The vehicle (control) for hesperidin, hesperidin-3′-O-methylether, or Ro 20-1724 was a mixture of DMSO : PEG 400 : saline (1 : 1 : 8, v/v). After the loss of the righting reflex (i.e., when a mouse remained on its back and no longer spontaneously righted itself to a prone position), the duration of anesthesia was measured until its return as the endpoint.

The text below walks through data of article PMC3469158, “Hesperidin-3′-O-Methylether Is More Potent than Hesperidin in Phosphodiesterase Inhibition and Suppression of Ovalbumin-Induced Airway Hyperresponsiveness” (Evidence-based Complementary and Alternative Medicine : eCAM, 2012).

The IC50 is the concentration needed to halve the response being measured.

Each structure is given as a SMILES string.

Turning to `COc1ccc([C@@H]2CC(=O)c3c(O)cc(O[C@@H]4O[C@H](CO[C@@H]5O[C@@H](C)[C@H](O)[C@@H](O)[C@H]5O)[C@@H](O)[C@H](O)[C@H]4O)cc3O2)cc1O` [hesperidin], in data set [1] (30 μmol/kg p.o.), the “total and OVA-specific IgE levels in the serum and BALF” value is on record as “but not hesperidin, significantly suppressed”. In data set [1] (100 μmol/kg p.o.), the “levels of total and ovalbumin-specific IgE in the BALF and serum” value is recorded as “significantly suppressed”; the “reduction of total IgG2a level in the serum” value is reported as “significantly reversed”. Moreover, the “numbers of all inflammatory cells examined in BALF” value in data set [2] (30 μmol/kg p.o.) is recorded as “unaffected”. In data set [2] (100 μmol/kg p.o.), the “increases in numbers of total inflammatory cells, macrophages, lymphocytes, neutrophils, and eosinophils in BALF” value is “significantly suppressed”. Besides, the “level of IL-4” value with IL-4 is “insignificantly inhibit”. The IC50 in the data set on PDE1 was more than 100 µM. In addition, in data set [3] (30 μmol/kg p.o.), the “suppression of AHR” value is listed as “but not hesperidin, significantly suppressed AHR”; the “Penh value at the baseline” value is 2.39 ± 0.06; the “Penh value with PBS nebulization” value is listed as 2.40 ± 0.05. Further, in data set [3] (100 μmol/kg p.o.), the “Penh value at the baseline” value was determined as 2.41 ± 0.04 and the “Penh value with PBS nebulization” value stood at 2.39 ± 0.05. Further, the “enhancement of Penh values induced by 25 and 50 mg/mL methacholine” value in data set [3] (100 μmol/kg p.o., vs control (vehicle)) is “significantly attenuated”. The “duration of xylazine/ketamine-induced anesthesia” value in data set [4] was “Neither hesperidin nor hesperidin-3′-O-methylether (each 300 μmol/kg, s.c.) influenced the duration”.
